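Dose response: 5 concentrations. Exposure: 48 h. Format: 96-well plates. Endpoint: linear interpolation; highest concentration if not reached. TGI denotes the concentration required for complete inhibition of growth.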
Legend:
Test in all cases: DTP human tumour cell line panel, 48 h
[1] = system: NCI-H23 lung
[2] = system: OVCAR-4 ovarian
[3] = system: SW-620 colon
[4] = system: T-47D breast
[5] = system: LOX IMVI melanoma
[6] = system: HCT-116 colon
[7] = system: A498 renal
[8] = system: CAKI-1 renal
[9] = system: MDA-N
[10] = system: UACC-62 melanoma
[11] = system: HCT-15 colon
[12] = system: RXF 393 renal
[13] = system: SNB-75 CNS

Row | Compound | TGI [1] [µM] | TGI [2] [µM] | TGI [3] [µM] | TGI [4] [µM] | TGI [5] [µM] | TGI [6] [µM] | TGI [7] [µM] | TGI [8] [µM] | TGI [9] [µM] | TGI [10] [µM] | TGI [11] [µM] | TGI [12] [µM] | TGI [13] [µM]
1 | O=C1CSC(c2ccc([N+](=O)[O-])cc2)N1c1ccc(-c2ccc(-n3c(-c4ccccc4)nc4ccccc4c3=O)cc2)cc1 (stereo not drawn) | > 100 | > 100 | > 100 | > 100 | > 100 | > 100 | > 100 | > 100 | > 100 | > 100 | > 100 | – | –
2 | C#CC1(O)CCC2[C@@H]3CCc4cc(Oc5nc(F)nc(-c6c7ccccc7c(SCC)n6CCC)n5)ccc4C3CC[C@@]21C (stereo partly drawn) | 63.9 | > 100 | > 100 | – | > 100 | > 100 | > 100 | – | – | > 100 | > 100 | 55.4 | –
3 | Cc1cc(Nc2ccc(NS(C)(=O)=O)cc2)c2c(ccc3nccc32)[nH]1 | 49.6 | 30.6 | > 100 | 19.5 | 48.4 | 37.9 | 43 | 96.6 | 31.5 | 30.7 | > 100 | – | –
4 | CCN(CC)CCn1c(=O)c2c(C)c3oc4ccccc4oc3c(C)c2c1=O | – | > 100 | > 100 | – | > 100 | > 100 | > 100 | > 100 | > 100 | > 100 | > 100 | > 100 | > 100
5 | CC1(C)C2CCC1C(=O)[C@@]1(C=CC(=O)CC1)C2 (stereo partly drawn) | > 100 | > 100 | > 100 | > 100 | > 100 | > 100 | – | – | > 100 | > 100 | > 100 | > 100 | > 100
6 | COc1cc(Cc2cnc(N)nc2N)cc(OC)c1OCCCNc1ccc([N+](=O)[O-])cc1 | 31.8 | 33.6 | 34.2 | 25.3 | – | 30.4 | 39.3 | > 100 | 32.9 | 26.7 | 37.8 | 25.2 | 32.7
7 | C=CCN1/C(=C2\SC(=S)N(c3ccc(C)cc3)C2=O)Sc2c1ncn(C)c2=O | > 100 | > 100 | > 100 | – | > 100 | > 100 | > 100 | > 100 | – | > 100 | > 100 | – | > 100
8 | COC(=O)c1c2c(cc3c1CC1(Cc4cc5c(c(C(C)=O)c4C1)CCCC5)C3)CCCC2 (stereo not drawn) | > 100 | > 100 | – | > 100 | > 100 | > 100 | > 100 | – | > 100 | > 100 | > 100 | > 100 | –
9 | O=C(c1cccs1)N1CCCN(C(=O)c2cccs2)C1=S | > 100 | – | > 100 | > 100 | > 100 | > 100 | > 100 | > 100 | – | > 100 | > 100 | > 100 | –
10 | Cc1c(Cl)cccc1N=NC(=O)NNc1cccc(Cl)c1C | 33.2 | 25.9 | 30.8 | 24.2 | 35.7 | 28.6 | 27.7 | – | 31 | 25.5 | 30 | – | 32.5
11 | C#C[C@@]1(O)CCCC2=CC3(CC[C@]21C)SCCS3 | > 100 | > 100 | > 100 | > 100 | > 100 | > 100 | > 100 | – | > 100 | > 100 | > 100 | > 100 | –
12 | O=C(CN1CCCCC1)Nc1ccc2c(c1)C1Oc3ccccc3CC1CO2 (stereo not drawn) | > 100 | – | 39.7 | 52 | 30 | 35.2 | 62.8 | > 100 | 36.7 | 34.1 | 35.1 | – | –
13 | CC(=O)C(C(C)=O)[C@@H]1OC(C)(C)O[C@@H]1[C@H]1COC(C)(C)O1 | > 100 | > 100 | > 100 | – | > 100 | > 100 | > 100 | > 100 | 70.1 | > 100 | > 100 | > 100 | –
14 | Cn1c2ccccc2c2cc(N3CCCC3)c3c(c21)C(=O)N(c1ccccc1)C3=O | > 100 | > 100 | > 100 | > 100 | > 100 | > 100 | > 100 | – | > 100 | > 100 | > 100 | 91.2 | > 100
15 | O=C(O)c1c2c(cc3c1CC1(Cc4cc5c(cc4C1=O)CCC5)C3)CCC2 (stereo not drawn) | > 100 | > 100 | > 100 | > 100 | > 100 | > 100 | > 100 | – | > 100 | > 100 | > 100 | > 100 | > 100
16 | C/C=C(\C)C(=O)O[C@@H]1CC(C)(C)CC2C3=CCC4[C@]56CC[C@](O)(OC5)C(C)(C)C6CC[C@@]4(C)C3(C)CC[C@]21C(=O)O (stereo partly drawn) | > 100 | > 100 | > 100 | > 100 | > 100 | > 100 | > 100 | > 100 | > 100 | > 100 | > 100 | > 100 | –
17 | c1ccc(SC23C4C5C6C4C2C6C53)nc1 (stereo not drawn) | > 100 | > 100 | > 100 | – | > 100 | > 100 | > 100 | > 100 | – | > 100 | > 100 | – | > 100
18 | COc1ccc(-c2ncn(C[Si](C)(C)C)c2-c2ccc(OC)cc2)cc1 | 18.5 | 25.6 | 17 | – | 21 | 13 | – | 21.9 | 10.9 | 10.2 | 18.3 | 21.1 | 28.3
19 | Cc1ccc(-c2cc[n+]3c(n2)oc2ccccc23)cc1 | > 100 | 48.8 | > 100 | > 100 | > 100 | > 100 | 65.4 | > 100 | > 100 | 97.7 | > 100 | – | 65.3
20 | Cc1cc2n[n+]3[n-]cc(-c4ccccc4)n3c2cc1[N+](=O)[O-] | – | > 100 | > 100 | > 100 | > 100 | > 100 | > 100 | > 100 | – | > 100 | > 100 | > 100 | > 100

Reference: PubChem BioAssay (NCI)
